Tests used:
[1] = system: Candida albicans; test: Antifungal activity against Candida albicans DSY2621 by MTT assay; assay type: functional
[2] = system: Candida albicans; test: Antifungal activity against wild type Candida albicans CAF2-1 by MTT assay; assay type: functional

MIC [1]	MIC [2]	SMILES
15 µg	–	CC1(C)C=Cc2c(O)nc3ccccc3c2O1 [FLINDERSINE]
15 µg	–	COc1cccc2c3c(c(=O)[nH]c12)C=CC(C)(C)O3
0.0006 µg	0.0006 µg	Clc1ccc(COC(Cn2ccnc2)c2ccc(Cl)cc2Cl)c(Cl)c1 (centres undefined) [MICONAZOLE]

Source: ChEMBL document CHEMBL3867448, “Targeted Isolation of Indolopyridoquinazoline Alkaloids from Conchocarpus fontanesianus Based on Molecular Networks” (2016)
